Measured values published in ChEMBL document CHEMBL3864184, “Optimization of Highly Kinase Selective Bis-anilino Pyrimidine PAK1 Inhibitors” (ACS Med Chem Lett, 2016).

Assay: Distribution coefficient, logD of the compound
Type: physicochemical
Conditions: octanol/water

Row | SMILES | logD
1 | Cc1cc(C)c(N(C)c2nc(Nc3cc(N4CCOCC4)cc(S(C)(=O)=O)c3)ncc2F)cc1CO | 3.8
2 | Cc1ccc(N(C)c2nc(Nc3cc(N4CCOCC4)cc(S(C)(=O)=O)c3)ncc2F)cc1CO | 3.3
3 | CCS(=O)(=O)c1cc(Nc2ncc(F)c(N(Cc3ccccc3F)c3cc(CO)ccc3C)n2)ccc1N1CCN(C)CC1 | 3.3
4 | CN(c1cccc(CO)c1)c1nc(Nc2cc(N3CCOCC3)cc(S(C)(=O)=O)c2)ncc1F | 3
5 | Cc1cc(C)c(N(C)c2nc(Nc3ccc(N4CCN(C)CC4)cc3)ncc2F)cc1CO | 3

Now from value to compound:

Row | logD | SMILES
6 | 3.8 | CCS(=O)(=O)c1cc(Nc2ncc(F)c(N(C)c3cc(CO)c(C)cc3C)n2)cc(N2CCOCC2)c1
7 | 3.7 | COCc1ccc(C)c(N(C)c2nc(Nc3cc(N4CCOCC4)cc(S(C)(=O)=O)c3)ncc2F)c1
8 | 2.8 | CCS(=O)(=O)c1cc(Nc2ncc(F)c(N(Cc3ccccc3)c3cc(CO)ccc3C)n2)ccc1N1CCN(C)CC1
